Where two headings read alike, the source gives them in different places.
Key:
physchem = assay: physchem; set-up: aqueous solubility at pH 7.0; details: pH 7.0; buffer pH 7.0; aqueous buffer pH 7.0
Excerpt: (§1) We selected compound 1 as the lead exemplar of cluster 3 and leveraged it as a foundation for subsequent drug development (Fig. 1a). Structure-activity relationship studies and pharmacokinetic profiling produced several derivative molecules, of which compound 21 provided the best combination of outstanding inhibitory potential, low clearance in mouse microsomes and acceptable solubility (Fig. 1a–c and Supplementary Tables 1–4). […] This assessment was supported by structural modelling of the interaction between compound 21 and the active site of GWL (Fig. 1d). In further support of its GWL-targeting properties, compound 21 diminished the phosphorylation of the canonical GWL substrate ENSA(S67) in Xenopus laevis cytostatic factor (CSF) egg extract (Supplementary Fig. 2). Having satisfied the criteria of prospective GWL inhibitor, the racemic compound 21 was registered as UOS-00054604 and, for the remainder of the manuscript, is referred to as C-604.

in vitro [1] = assay: in vitro; set-up: intrinsic clearance in mouse microsomes; details: liver microsomes; mouse liver microsomes
Excerpt: as §1

in vitro [2] = assay: in vitro; set-up: intrinsic clearance in human microsomes; details: liver microsomes; human liver microsomes; read-out: Cl (human)
Excerpt: as §1

solubility (physchem): 72 µM
microsomal CLint (in vitro [1]): 24 µL/min/mg
microsomal CLint (in vitro [2]): 13 µL/min/mg
SMILES: CNC(=O)c1c[nH]c2ncc(-c3ccc(OCCN4CCC(c5ccccc5)C4)cc3)nc12 (racemic) [compound 21, C-604]

— PMC12391391, “The balance between B55α and Greatwall expression levels predicts sensitivity to Greatwall inhibition in cancer cells” (Nature Communications, 2025)
